# Reference: patent publication US20260232590A1, “LIPID NANOPARTICLES FOR THE TREATMENT OF OCULAR DISEASES” (UNIVERSITAT DE BARCELONA, priority 2023, published 2026)
# Key:
# [1] = tested on: chorioallantoic membrane of a fertilized chicken egg; test: In vitro ocular tolerance HET-CAM test; settings: 300 μL, first 5 min
# Description: In vitro ocular tolerance was assessed using the HET-CAM test to ensure that the formulations of Loaded Lipid Nanoparticles were non-irritating when administered as eye-drops. Irritation, coagulation, and haemorrhage phenomena were measured by applying 300 μL of the formulation studied on chorioallantoic membrane of a fertilized chicken egg and monitoring it during the first 5 min after the application. This assay was conducted according to the guidelines of ICCVAM (The Interagency Coordinating Committee on the Validation of Alternative Methods). The development of the test was carried out using 3 eggs for each group (free APG, Loaded Lipid Nanoparticles, positive control (NaOH 0.1 M) and negative control (0.9% NaCl)). The ocular irritation index (OII) was calculated by the sum of the scores of each injury according to the following expression (Eq 3):
# [formula] • where H, V and C are times (s) until the start of haemorrhage (H), vasoconstriction (V) and coagulation (C), respectively. The formulations were classified according to the following: OII≤0.9 non-irritating; 0.9<OII≤4.9 weakly irritating; 4.9<OII≤8.9 moderately irritating; 8.9<OII≤21 irritating.
# [2] = concentration of 0.5%; cited from earlier work
# [3] = tested on: chorioallantoic membrane of a fertilized chicken egg; test: Trypan blue staining (TBS) of the CAM; settings: after HET-CAM
# Description: Furthermore, at the end of the HET-CAM experiment, in order to quantify the damage of the membrane, trypan blue staining (TBS) was applied. The CAM was treated with 1000 μL of 0.1% trypan blue solution for 1 min. Excess dye was rinsed off with distilled water. The dyed CAM was excised and extracted with 5 mL formamide, and the absorbance of the extract was measured spectrophotometrically at 595 nm. The absorbed trypan blue was determined from a calibration curve of trypan blue in formamide.
# [4] = tested on: ocular inflammation induced by sodium arachidonate; test: In vivo anti-inflammatory treatment study (sodium arachidonate); design: species or system New Zealand male albino rabbits; settings: applied 30 min after SA
# Description: In vivo anti-inflammatory effectiveness was carried out throughout the evaluation test for the inflammation prevention ability and the anti-inflammatory efficacy. Assays were carried out using New Zealand male albino rabbits (n=3/group), described previously. The activity of Loaded Lipid Nanoparticles in comparison with free APG, Lipid Nanoparticles, and NaCl 0.9% (control group) was measured. The inflammation prevention study consisted of the ocular application of 50 μL of each formulation. After 30 min of exposure, an inflammatory stimulus, 50 μL of 0.5% sodium arachidonate (SA) dissolved in PBS, was instilled in the right eye and the left eye was used as a control. In the anti-inflammatory treatment study, the inflammatory stimulus was applied 30 min before than the application of each formulation tested. The evaluation of prevention and treatment of each formulation were carried out from the first application up to 210 min, according to the Draize modified test scoring system.
# [5] = tested on: dry eye induced by 0.1% benzalkonium chloride; test: Dry eye disease model, Schirmer test (aqueous tear production); type: in vivo, New Zealand white rabbits; settings: twice-daily topical, one week
# Description: In order to evaluate the potential to treat dry eye of Loaded Lipid Nanoparticles, Schirmer test, fluorescein and Bengal rose assessments were performed against Lipid Nanoparticles, free APG and 0.15% hyaluronic acid (commercial solution Hyabak®). Twelve male New Zealand white rabbits (purchased from Livestock Research Institute, Council of Agriculture, Executive Yuan, Taiwan) weighing between 2.0 and 2.5 kg were used for the study. The rabbits were randomly divided into 4 groups: Lipid Nanoparticles, Loaded Lipid Nanoparticles, free APG solution and 0.15% hyaluronic acid (commercial solution (Hyabak®). All rabbits were housed at a room temperature of 23±2° C. with relative humidity 75±10% and alternating 12-hour light-dark cycles (8 a.m. to 8 p.m.). Both eyes of each rabbit were treated twice-daily by a topical administration of 0.1% benzalkonium chloride (BAC) drops for 2 weeks. On day 14, DES was confirmed by Schirmer test, fluorescein and Bengal rose staining. The treatment began after the confirmation of DES, where on eye of each rabbit was chosen randomly for twice-daily topical administration of Lipid Nanoparticles, Loaded Lipid Nanoparticles, free APG solution and a commercial solution. […] Tear production was measured using Schirmer test strips. […] After 5 min, the wetted length (mm) of the paper strips was recorded.
# [6] = tested on: New Zealand male albino rabbits; test: In vivo primary eye irritation test of Draize; design: species or system rabbit
# Description: All of the procedures were approved by the Ethical Committee for Animal Experimentation of the UB and current legislation (Decree 214/97, Gencat). The formulations were evaluated using primary eye irritation test of Draize to ensure the results obtained from the […] test. For this experiment, New Zealand male albino rabbits (2.0-2.5 kg, San Bernardo farm, Navarra, Spain) were used. 50 μL of each sample were instilled in the ocular conjunctival sac (n=3/group) and a mild massage was applied to guarantee the passage of the sample through the eyeball. […] The opposite untreated eye was used as a negative control. Draize test score was determined directly by observing the anterior segment of the eye and changes in the structures of the cornea (turbidity or opacity), iris and conjunctiva (congestion, chemosis, swelling and secretion).
# HCE-2 cells = test: MTT cell viability in corneal cells; type: cell-based, human; settings: 5- and 15-minutes incubation
# Description: (§1) Human corneal epithelial cells (HCE-2) (LGC Standards, Barcelona, Spain) were cultured in keratinocyte serum-free growth medium (SFM; Life Technologies, Invitrogen, GIBCO®, Paisley, UK)). It was supplemented with bovine pituitary extract 0.05 mg·mL^−1 and epidermal growth factor 5 ng·mL^−1 containing insulin 0.005 mg·mL^−1 and penicillin 100 U·mL^−1 plus streptomycin […]. Cells were grown on a culture flask to 80% confluency in a humidified 10% CO2 atmosphere at 37° C. Human UM 92-1 cells were maintained in RPMI-1640 medium, added with 10% fetal bovine serum (FBS), 2 mM L-glutamine, 100 units/mL penicillin and […] streptomycin. For MTT assay, passages from 10 to 13 were used. All the cells were incubated at 37° C. and 10% CO2 [28].
# (§2) Cytotoxicity of Loaded Lipid Nanoparticles and Lipid Nanoparticles was determined by MTT (3-(4,5-Dimethylthiazol-2-yl)-2,5-diphenyl tetrazolium bromide) assay, by reduction of tetrazolium salt by intracellular dehydrogenases of viable living cells. […] Cell viability was then measured at wavelength of 560 nm in a Modulus® Microplate Photometer (Turner BioSystems Inc., Sunnyvale, CA, USA). Results were expressed as percentage of cell survival relative to untreated cells.
# The cytotoxicity of several concentrations of free APG, Loaded Lipid Nanoparticles, and the Lipid Nanoparticles (without APG) were evaluated on HCE-2 cells. […]
# UM 92.1 cancer cells = test: MTT cytotoxic capacity in ocular tumoral cells; type: cell-based, human; settings: 0.005-0.05 mg/mL, 24 h
# Description: as §1
# as §2, with “untreated cells. […]” for “untreated cells.”
# [7] = In vitro APG release, Franz-type diffusion cells; type: in vitro ADME
# Description: The in vitro APG release test for Loaded Lipid Nanoparticles was performed using Franz-type diffusion cells (Crown Glass, NY, USA) with a diffusion area of 0.20 cm^2 and dialysis membranes of cellulose (MWCO 12 kDa). A solution of PBS with 5% polysorbate 80 and 20% ethanol under continuous stirring was used as a receptor medium assuring sink conditions (ability of the medium to dissolve the expected amount of drug). The formulations were compared with free-APG solution. The assay was carried out at 32±0.5° C. along 48 h. 300 μL of each formulation were added to the donor compartment by direct contact with the membrane. At a certain timepoints, 150 μL of sample were collected with a syringe and the volume withdrawn was replaced with receptor solution. Drug content of the samples was analysed with HPLC. The test was performed by triplicate, and the cumulative amount of APG was calculated.
# CAM of embryonated eggs = test: Antiangiogenic activity, modified CAM test; design: species or system chicken; settings: 40 μL, 48 h
# Description: To determine the antiangiogenic effects of Loaded Lipid Nanoparticles, a modified choriolantoic membrane (CAM) test was used. It was carried out using fertilised chicken eggs incubated at 37° C. and 85% humidity from the farm […] (Tarragona, Spain). A lateral window was opened on the eggshell on the 3rd day of incubation and after 24 h of stabilization, 40 μL of the sample were inoculated to the CAM. Afterwards the membrane was sealed and incubated for 48 h. The controls of the experiments were NaCl as a normal angiogenic development, and basic fibroblast growth factor (bFGF) as a pro-angiogenic control (20 μL at 10 ng·mL^-1). Once CAM were evaluated, membranes were fixed by adding 4% paraformaldehyde overnight at 4° C. Next, membranes were extracted and observed using a binocular loupe. Afterwards, the obtained images were processed and the density of the vessels in the CAM was automatically measured using ImageJ vessel analysis plugin [34].
# [8] = tested on: dry eye induced by 0.1% benzalkonium chloride; test: Dry eye disease model, fluorescein staining of the ocular surface; type: in vivo, New Zealand white rabbits; settings: twice-daily topical, one week
# Description: In order to evaluate the potential to treat dry eye of Loaded Lipid Nanoparticles, Schirmer test, fluorescein and Bengal rose assessments were performed against Lipid Nanoparticles, free APG and 0.15% hyaluronic acid (commercial solution Hyabak®). Twelve male New Zealand white rabbits (purchased from Livestock Research Institute, Council of Agriculture, Executive Yuan, Taiwan) weighing between 2.0 and 2.5 kg were used for the study. The rabbits were randomly divided into 4 groups: Lipid Nanoparticles, Loaded Lipid Nanoparticles, free APG solution and 0.15% hyaluronic acid (commercial solution (Hyabak®). All rabbits were housed at a room temperature of 23±2° C. with relative humidity 75±10% and alternating 12-hour light-dark cycles (8 a.m. to 8 p.m.). Both eyes of each rabbit were treated twice-daily by a topical administration of 0.1% benzalkonium chloride (BAC) drops for 2 weeks. On day 14, DES was confirmed by Schirmer test, fluorescein and Bengal rose staining. The treatment began after the confirmation of DES, where on eye of each rabbit was chosen randomly for twice-daily topical administration of Lipid Nanoparticles, Loaded Lipid Nanoparticles, free APG solution and a commercial solution. After one week of treatment, Schirmer test, fluorescein and Bengal rose staining were performed. Fluorescein staining is an effective method for ocular surface evaluation. […]
smiles,measurement,setting,value
[Na+].[OH-] [NaOH],HET-CAM irritation classification,[1],severe irritant
"CCCCCCCCCCCCCCCCCC[N+](C)(C)CCCCCCCCCCCCCCCCCC.[Br-] [DDAB, dimethyldioctadecylammonium bromide]",toxicity in ocular delivery,[2],had not shown any toxicity
"O=c1cc(-c2ccc(O)cc2)oc2cc(O)cc(O)c12 [free APG, Apigenin]",TBS quantitative result (irritancy),[3],irritant
same,inflammation treatment effect,[4],able to treat fast the inflammation
same,tear flow (Schirmer test) versus dry eye group,[5],did not improve the tear flow
same,Draize test irritancy in vivo,[6]; 50 μL in conjunctival sac,non-irritant
same,discomfort after instillation,[6]; in vivo,caused an initial discomfort
same,cell viability,HCE-2 cells,≥ 80%
same,cell viability / toxicity,HCE-2 cells; all the tested concentrations,did not show toxicity
same,cytotoxicity against cancer cells,UM 92.1 cancer cells,significant toxicity
same,in vitro release profile,[7]; 48 h,faster release
same,APG released,"[7]; at 24 h, 32° C., PBS with 5% polysorbate 80 and 20% ethanol",100%
same,vascular density versus negative control (NaCl),CAM of embryonated eggs,not significant
same,"fluorescein staining score, corneal surface",[8],worse punctuation in the staining
